For orientation: IC50 means the concentration that gives 50% inhibition. A high value points to a need for much substance.

These results are taken from PMC7011792 (Journal of Enzyme Inhibition and Medicinal Chemistry, 2017).

For assay [1], the target named is T1, AChE (EC 3.1.1.7) from human (Homo sapiens, UniProt P22303).
T1 construct: purchased Sigma-Aldrich C1682
The assay can be described thus: Human AChE inhibition, Ellman's method. The class given is biochemical. How it is done: (§1) AChE (EC 3.1.1.7, Type VI-S, from electric eel, C3389; from human, C1682) and BuChE (EC 3.1.1.8, from equine serum, C0663; from human, B4186), 5,5'-dithiobis (2-nitrobenzoic acid) (DTNB, D218200), acetylthiocholine iodide (ATC, A5751), and butyrylthiocholine iodide (BTC, B3253) were obtained from Sigma-Aldrich (St. Louis, MO).
(§2) The inhibitory effects of the synthesised compounds in this paper were evaluated according to our previously reported method. Briefly, AChE/BuChE stock solution was diluted to give 2.5 units/mL (for eeAChE, eqBuChE, and huAChE) or 0.5 units/mL for huBuChE. ATC/BTC iodide solution (0.075 M) was prepared in deionised water. DTNB solution (0.01 M) was prepared using water containing 0.15% (w/v) sodium bicarbonate. The assay buffer was prepared as follows: potassium dihydrogen phosphate (1.36 g, 10 mmol) was dissolved in 100 ml of water. The pH of the solution was then adjusted to 8.0 ± 0.1 with KOH. Stock solutions of the test samples were dissolved in ethanol to give a final concentration of 10^−4 M when diluted to the final volume of 3.32 ml. For each compound, a dilution series of at least five different concentrations (normally 10^−5–10^−9 M) were prepared.
(§3) For measurement, a cuvette containing 3.0 ml of phosphate buffer, 100 µL of AChE or BuChE, 100 µL of DTNB, and 100 µL of the test compound solution were added in sequence. The reaction was initiated after adding 20 µL of ATC or BTC, and the solution was mixed immediately. Two minutes (eeAChE and eqBuChE) or 15 min (huAChE and huBuChE) after ATC or BTC addition, the absorption was measured at 25 °C (eeAChE and eqBuChE) or 37 °C (huAChE and huBuChE) at 412 nm, using a Shimadzu 160 spectrophotometer. For the reference value, 100 µL of water replaced the test compound solution. For the blank control, additionally 100 µL of water replaced the enzyme solution. The measurement for each concentration was assayed in triplicate. GraphPad Prism 5 was used for data processing. The inhibition curve was fitted by plotting percentage enzyme activity (100% for the reference) versus logarithm of test compound concentration. The IC50 values were calculated according to the curve, and the data were shown in mean ± SEM.
Background: DTNB colorimetry detects thiols as they appear.

Assay [2] addresses T2, BuChE (EC 3.1.1.8) from human (Homo sapiens, UniProt P06276).
T2 construct: purchased Sigma-Aldrich B4186
The assay can be described thus: Human BuChE inhibition, Ellman's method. In kind it is biochemical. The conditions noted are these: huBuChE; mean ± SEM. As to the method:
as §1, §2
as §3, with “The inhibition curve was fitted by plotting percentage enzyme activity (100% for the reference) versus logarithm of test compound concentration.” left out

The target in assay [3] is T3, AChE (EC 3.1.1.7) from electric eel (Electrophorus electricus, UniProt O42275).
T3 construct: purchased Sigma-Aldrich C3389
T3 sequence (O42275 24-633): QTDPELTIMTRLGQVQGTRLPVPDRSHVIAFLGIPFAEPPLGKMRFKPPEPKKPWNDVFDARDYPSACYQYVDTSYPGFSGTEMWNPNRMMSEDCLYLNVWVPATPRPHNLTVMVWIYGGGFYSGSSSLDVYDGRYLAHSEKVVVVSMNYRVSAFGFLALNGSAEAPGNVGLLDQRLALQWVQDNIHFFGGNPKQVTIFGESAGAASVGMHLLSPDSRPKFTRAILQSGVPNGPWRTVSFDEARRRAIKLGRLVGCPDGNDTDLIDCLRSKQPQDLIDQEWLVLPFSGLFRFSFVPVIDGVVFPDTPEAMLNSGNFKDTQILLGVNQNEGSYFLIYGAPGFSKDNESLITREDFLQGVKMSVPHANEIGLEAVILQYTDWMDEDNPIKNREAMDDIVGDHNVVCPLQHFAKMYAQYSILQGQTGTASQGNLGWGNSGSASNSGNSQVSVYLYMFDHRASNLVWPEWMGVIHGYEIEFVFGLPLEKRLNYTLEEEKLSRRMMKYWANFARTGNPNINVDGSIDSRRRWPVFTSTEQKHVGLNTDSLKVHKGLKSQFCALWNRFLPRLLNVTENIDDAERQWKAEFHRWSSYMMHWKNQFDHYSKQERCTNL
The assay can be described thus: biochemical. As to the method: as §1
as §2, with “Briefly, AChE/BuChE stock solution was diluted to give 2.5 units/mL (for eeAChE, eqBuChE, and huAChE) or 0.5 units/mL for huBuChE.” left out, “DTNB solution (0.01 M) was prepared using water containing 0.15% (w/v) sodium bicarbonate.” left out
as §3, with “Two minutes (eeAChE and eqBuChE) or 15 min (huAChE and huBuChE) after ATC or BTC addition, the absorption was measured at 25 °C (eeAChE and eqBuChE) or 37 °C (huAChE and huBuChE) at 412 nm, using a Shimadzu 160 spectrophotometer.” left out
The inhibitory effects on ChEs of all the target compounds were determined according to Ellman’s method. AChE from electrophorus electricus (eeAChE) and BuChE from equine serum (eqBuChE) were used in the assays.

T1 sequence (P22303 32-614): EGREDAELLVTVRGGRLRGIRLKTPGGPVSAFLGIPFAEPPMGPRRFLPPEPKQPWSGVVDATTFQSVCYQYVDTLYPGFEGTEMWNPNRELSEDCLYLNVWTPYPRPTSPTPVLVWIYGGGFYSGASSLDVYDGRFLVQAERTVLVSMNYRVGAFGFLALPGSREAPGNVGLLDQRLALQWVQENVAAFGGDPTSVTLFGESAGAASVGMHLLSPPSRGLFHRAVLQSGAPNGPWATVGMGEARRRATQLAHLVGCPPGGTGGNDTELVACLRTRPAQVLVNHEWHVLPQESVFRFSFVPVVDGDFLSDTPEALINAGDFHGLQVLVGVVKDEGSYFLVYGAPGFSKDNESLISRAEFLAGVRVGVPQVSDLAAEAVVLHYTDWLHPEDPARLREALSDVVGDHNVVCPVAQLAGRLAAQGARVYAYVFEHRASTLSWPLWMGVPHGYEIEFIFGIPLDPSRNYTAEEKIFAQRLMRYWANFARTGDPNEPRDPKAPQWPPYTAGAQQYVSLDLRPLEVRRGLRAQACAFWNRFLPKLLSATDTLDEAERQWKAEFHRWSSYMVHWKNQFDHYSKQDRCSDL
T2 sequence (P06276 29-602): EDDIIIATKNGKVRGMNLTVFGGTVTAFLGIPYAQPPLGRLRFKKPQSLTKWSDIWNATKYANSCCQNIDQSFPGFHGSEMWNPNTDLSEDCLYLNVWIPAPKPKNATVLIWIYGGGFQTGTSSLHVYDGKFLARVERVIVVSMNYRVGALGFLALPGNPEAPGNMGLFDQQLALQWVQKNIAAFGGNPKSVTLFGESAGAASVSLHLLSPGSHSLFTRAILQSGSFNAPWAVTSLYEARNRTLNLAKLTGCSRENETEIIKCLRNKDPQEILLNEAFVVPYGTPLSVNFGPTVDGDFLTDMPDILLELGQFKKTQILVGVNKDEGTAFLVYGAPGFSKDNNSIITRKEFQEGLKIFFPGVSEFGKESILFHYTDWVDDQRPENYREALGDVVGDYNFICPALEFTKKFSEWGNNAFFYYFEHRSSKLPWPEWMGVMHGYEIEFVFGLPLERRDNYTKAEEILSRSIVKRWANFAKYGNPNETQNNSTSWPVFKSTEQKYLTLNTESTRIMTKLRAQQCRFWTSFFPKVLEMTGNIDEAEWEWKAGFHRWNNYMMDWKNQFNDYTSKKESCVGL

Regarding `O=C(/C=C/c1ccc([N+](=O)[O-])cc1)NCCCCCCNc1c2c(nc3ccccc13)CCCC2` [Compound 19, (E)-3-(4-nitrophenyl)-N-(6-((1,2,3,4-tetrahydroacridin-9-yl)amino)hexyl)acrylamide], the 50% inhibitory concentration (IC50) in assay [1] (huAChE, mean ± SEM) was 10.2 nM; in assay [2], 6.3 nM; in assay [3] (AChE from electric eel, mean ± SEM of three experiments), 2.7 ± 0.4 nM. Moreover, the “Selectivity index (SI) = BuChE IC50/AChE IC50, human enzymes” value in assay [1] (huBuChE IC50 / huAChE IC50) was found to be 0.6. In assay [3] (eqBuChE IC50 / eeAChE IC50), the “Selectivity index (SI) = BuChE IC50/AChE IC50” value is 2.4.
